“And” between values parts separate entries of the source, which are not always exact repeats. Equal entries are not always repeated.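 Protocol summary: plate cells (96-well), add compound at 5 concentrations, incubate 48 h, interpolate endpoints linearly. GI50 is the concentration that inhibits growth by half. TGI: total growth inhibition.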
Assays:
Test in all cases: NCI-60 cell line screen, 48 h
EKVX NSCLC = test system: EKVX NSCLC
HCT-116 colon = test system: HCT-116 colon
HT29 colon = test system: HT29 colon
MALME-3M melanoma = test system: MALME-3M melanoma
OVCAR-5 ovarian = test system: OVCAR-5 ovarian
SF-539 CNS = test system: SF-539 CNS
SK-MEL-5 melanoma = test system: SK-MEL-5 melanoma
SN12C renal = test system: SN12C renal
SNB-19 CNS = test system: SNB-19 CNS
UACC-257 melanoma = test system: UACC-257 melanoma

Row | SMILES | TGI (EKVX NSCLC) | TGI (HCT-116 colon) | TGI (HT29 colon) [µM] | TGI (MALME-3M melanoma) [µM] | TGI (OVCAR-5 ovarian) | TGI (SF-539 CNS) | TGI (SK-MEL-5 melanoma) | TGI (SN12C renal) [µM] | TGI (SNB-19 CNS) | TGI (UACC-257 melanoma) | GI50 (EKVX NSCLC) [µM] | GI50 (HCT-116 colon) [µM] | GI50 (HT29 colon) [µM] | GI50 (OVCAR-5 ovarian) [µM] | GI50 (SF-539 CNS) [µM] | GI50 (SK-MEL-5 melanoma) [µM] | GI50 (SN12C renal) [µM] | GI50 (SNB-19 CNS) [µM] | GI50 (UACC-257 melanoma) [µM] | GI50 (MALME-3M melanoma) [µM]
1 | C[C@]12CCC3[C@@H](CC[C@@H]4c5nonc5CC[C@]34C)C1C/C(=N/O)C2=O (stereo partly specified) | > 100 µM | > 100 µM | > 100 | > 100 | > 100 µM | > 100 µM | > 100 µM | > 100 | > 100 µM | > 100 µM | – | – | – | – | – | – | – | – | – | –
2 | Cc1[nH]c2ccccc2c1C1Cc2ccccc2N1C(=O)/C=C/C(=O)O (stereo unspecified) | > 100 µM | > 100 µM | > 100 | > 100 | > 100 µM | > 100 µM | > 100 µM | > 100 | > 100 µM | > 100 µM | – | – | – | – | – | – | – | – | – | –
3 | COc1ccc(/C=C\c2cc(OC)c(OC)c(OC)c2)cc1OC | 40.4 µM and > 100 µM | 40.4 µM and 24.4 µM | 31.4 | 91.6 | 40.4 µM and > 100 µM | 0.294 µM and 0.283 µM | 40.4 µM and 16.8 µM | – | 40.4 µM and 83.6 µM | 40.4 µM and > 100 µM | 0.333 | 0.0482 | 0.043 | 0.324 | 0.0605 | 0.0514 | 0.94 | 0.32 | 6.09 | –
4 | O=C1CC(S(=O)(=O)O)C=C1Nc1cccc(Cl)c1 (stereo unspecified) | > 100 µM | > 100 µM | > 100 | > 100 | > 100 µM | > 100 µM | > 100 µM | > 100 | > 100 µM | > 100 µM | – | – | – | – | – | – | – | – | – | –
5 | CN1c2ccccc2N(C)C23N(C)c4ccccc4N(C)C12N(C)c1ccccc1N3C (stereo unspecified) | > 100 µM | > 100 µM | > 100 | > 100 | > 100 µM | > 100 µM | > 100 µM | > 100 | > 100 µM | > 100 µM | – | – | – | – | – | – | – | – | – | –
6 | O=C(NN1C(=O)CSC12CCCC2)c1[nH]c2ccc(Br)cc2c1-c1ccccc1 | > 100 µM | > 100 µM | > 100 | > 100 | > 100 µM | > 100 µM | > 100 µM | 77 | > 100 µM | > 100 µM | > 100 | 26.7 | 30.7 | > 100 | > 100 | 63.9 | 25.9 | 54.1 | > 100 | 38.3
7 | O=c1c2ccccc2nc(-c2ccccc2)n1NC1OC(CO)C(O)C(O)C1O (stereo unspecified) | > 100 µM | > 100 µM | > 100 | > 100 | > 100 µM | > 100 µM | > 100 µM | > 100 | > 100 µM | > 100 µM | – | – | – | – | – | – | – | – | – | –
8 | COc1cccc(-n2ncc3c(N/N=C/c4ccncc4)ncnc32)c1 | > 25 µM | > 25 µM | > 25 | > 25 | > 25 µM | > 25 µM | > 9.75 µM | > 25 | > 25 µM | > 25 µM | > 25 | 2.8 | 2.24 | > 25 | 4.27 | 0.799 | 4.95 | > 25 | > 25 | > 25
9 | COc1cc(C2C(Cl)C(=O)N2NC(=O)c2ccc(N)cc2)ccc1O (stereo unspecified) | > 100 µM | 47.9 µM | 45.8 | 32.1 | > 100 µM | 62.1 µM | > 100 µM | > 100 | 78.9 µM | > 100 µM | – | – | – | – | – | – | – | – | – | –
10 | COc1c(Cl)cc(NC(=S)C#N)cc1Cl | > 74 µM | 31.6 µM | > 65.8 | 59.6 | > 100 µM | 59 µM | 32.9 µM | 53.5 | > 100 µM | 53.9 µM | – | – | – | – | – | – | – | – | – | –
11 | CC1=C2C(=CC(C)(C)C2O)C(=O)C(C)(O)C12CC2 (stereo unspecified) | 0.144 µM | 0.188 µM | 0.0311 | 0.0337 | 0.0433 µM | 0.0604 µM | 0.0219 µM | 0.146 | 0.17 µM | 0.0442 µM | – | – | – | – | – | – | – | – | – | –
12 | Cc1cccc(C(C)C)c1NC(=O)CC1C(=O)Nc2ccccc2S1(=O)=O (stereo unspecified) | > 53.8 µM | > 46.9 µM | 26.8 | 50.9 | > 73.1 µM | 14.5 µM | 46.4 µM | > 59.4 | > 68 µM | > 70.8 µM | – | – | – | – | – | – | – | – | – | –
13 | CC(C)(O)CC(=O)NCCn1ccc2ncnc(Nc3ccc(Oc4cccc(C(F)(F)F)c4)c(Cl)c3)c21 | > 10 µM | > 10 µM | > 10 | > 10 | > 10 µM | > 10 µM | > 10 µM | > 10 | > 10 µM | > 10 µM | 0.415 | 2.92 | 3.83 | 2.55 | 4.03 | 2.84 | 2 | 3.91 | – | –
14 | CCOC(=O)C(=Cc1cccnc1C)C(=O)OCC | 42.1 µM | 17.9 µM | 18.4 | 26.8 | 31.8 µM | 33.3 µM | 25.1 µM | 16.2 | 23.6 µM | 20.7 µM | – | – | – | – | – | – | – | – | – | –
15 | COc1ccc(OC)c(NC(=O)CCC/C(CC(=O)c2ccc(O)c(OC)c2)=N\Nc2ccc([N+](=O)[O-])cc2)c1 | > 100 µM | > 100 µM | > 100 | > 100 | > 100 µM | > 100 µM | > 100 µM | > 100 | > 100 µM | > 100 µM | – | – | – | – | – | – | – | – | – | –
